Measurements from patent publication US9993462B2, “Hydantoin derivative-containing pharmaceutical composition” (Chugai Seiyaku Kabushiki Kaisha, priority 2014, dated 2018).

Tests used:
[1] = system: human articular chondrocytes; experiment: Proteoglycan synthesis by human articular chondrocytes (35S-sulfate incorporation); format: cell-based; settings: PTH(1-34) 10^−8 mol/L, cultured for 13 days
Protocol: After purchase of cryopreserved human articular chondrocytes (Lot 2867, Cell Applications Inc.), the cells were thawed in a 37° C. water bath, 15 mL of Basal Medium supplemented with 10% Growth Supplement (Growth Medium, Cell Applications Inc.) was placed in a T75 culture flask (CORNING, Corning Japan K. K.) to culture the cells, and exchanged the next day with 15 mL of Growth Medium; and the cells were cultured for three days. Growth Medium was then removed, and HBSS (Cell Applications Inc.) was used to wash the chondrocyte layer. With addition of 1 mL of trypsin/EDTA solution (Cell Applications Inc.), this was left to stand at room temperature for approximately five minutes, and chondrocytes were detached from the flask. With 10 mL of Neutralization solution (Cell Applications Inc.) added, Bulker-Turk hemocytometer was used to determine the cell count, and the cells were then transferred to a 15-mL test tube for centrifugation (1,200 rpm for five minutes, Tomy Seiko Co., Ltd.) to produce a chondrocyte pellet. The supernatant was discarded, and the cells were placed in a 1.2% sodium alginate solution (25 mmol/L HEPES/150 mmol/L sodium chloride solution, pH7.0) at 2×10^6 cells/mL. This was drawn into a 1-mL syringe (Terumo Corporation) equipped with a 22G injection needle, five drops were added to each well of a 24-well plate (Corning Japan K.K.) containing 2 mL of 102 mmol/L aqueous CaCl2 solution, and this was left to stand for five minutes to form beads. Subsequently, this was washed three times with a 150 mmol/L sodium chloride solution and incubated for one day in Growth Medium, and the medium was exchanged with Basal Medium supplemented with 1% Growth supplement (Cell Applications Inc.). In this procedure, the following factors were added to the medium, and the cells were cultured for 13 days with three times of medium exchange performed per week.
On day 12 of culturing, ^35S-labeled sulfuric acid (PerkinElmer Japan Co., Ltd.) was added at 370 kBq/well, and the medium was collected 24 hours later into a test tube and stored at 4° C. To the alginate gel, a 55 mmol/L sodium citrate solution (Nacalai Tesque, Inc.; 1 mL/well) was added, and this was incubated at 37° C. for ten minutes for solation. This was collected into a microtube (Eppendorf AG) and then centrifuged (1,200 rpm, five minutes) to produce a chondrocyte pellet. […] The glass filter was transferred to a liquid scintillation counter vial, 5 mL of scintillator (Hionic-Fluor, PerkinElmer Japan Co., Ltd.) was added and radioactivity was measured on a liquid scintillation counter (TRI-CARB, PerkinElmer Japan Co., Ltd.).
The remaining 0.1 mL of the digested solution was used for DNA quantification. […]

[2] = system: rabbit articular chondrocytes; experiment: Suppression of terminal differentiation of rabbit articular chondrocytes (alkaline phosphatase and alizarin red staining); format: cell-based; settings: BMP-2 100 ng/mL, Compound 7 10^−7 to 10^−5 mol/L, PTH(1-34) 10^−10 to 10^−7 mol/L
Protocol: NZW rabbits (4-week old, Oriental Yeast Co., Ltd.) were euthanized, and then the articular cartilage of the lower leg bone was collected, and transferred to a 50-mL test tube (Nippon Becton Dickinson Company). PBS (Nacalai Tesque, Inc.) containing 1% trypsin (Wako Pure Chemical Industries, Ltd.) was added to this, and the soft tissue was digested at 37° C. for one hour. This was followed by centrifugation at 1,200 rpm for five minutes, then supernatant was removed and PBS(−) was added to suspend the cartilage tissue. This was centrifuged at 1,200 rpm for five minutes, followed by removal of the supernatant, and washed three times by suspending in PBS(−). This was centrifuged at 1,200 rpm for five minutes, and then the cell pellet was digested by treatment with DMEM (Life Technologies Japan, Ltd.) containing 0.2% Type II collagenase (CLS-2, Worthington Biochemical Corp.) at 37° C. for three hours. Fetal bovine serum (Life Technologies Japan, Ltd.) was added at 10% v/v to stop the reaction, and this was vigorously pipetted using a 10-mL pipette (Nippon Becton Dickinson Company) to isolate the chondrocytes. This was centrifuged at 1,200 rpm for five minutes, followed by removal of the supernatant, and washed three times by suspending in 10% FCS-containing DMEM, and the chondrocytes were seeded at 1×10^4 cells/well on an I-type collagen-coated 96-well culture plate (AGC TECHNO GLASS CO., LTD.). Medium exchange was performed three times a week; and after the cells reached confluency, they were cultured in DMEM containing 100 μg/mL L-ascorbic acid phosphate magnesium salt n-hydrate (Wako Pure Chemical Industries, Ltd.), 10 mmol/L β-glycerophosphate pentahydrate (Wako Pure Chemical Industries, Ltd.) and 10% FCS. The following conditions were used to culture the cells, and alkaline phosphatase staining (cultured for 14 days) and alizarin red staining (cultured for 21 days) were performed to evaluate terminal differentiation of chondrocytes.
Alkaline phosphatase staining was performed by discarding the medium, then washing the chondrocytes once with 200 mmol/L Tris-HCl pH8.2 buffer, staining the cells according to the protocol supplied with the alkaline phosphatase staining kit (Vector Red Alkaline Phosphatase Substrate Kit I, Vector Laboratories, Inc.), and taking photographs with an inverted microscope (Nikon Corporation) (4× objective).
Alizarin red staining was performed by discarding the medium, then washing the chondrocytes twice with PBS, fixing the cells using 100% ethanol (Wako Pure Chemical Industries Ltd.) for 15 minutes, discarding the ethanol, and then staining with 1% alizarin red S (Wako Pure Chemical Industries Ltd.) for 15 minutes, followed by washing with distilled water; and photographs were taken with an inverted microscope.

ovariectomized rats = experiment: Bone mineral density after six weeks of repeated administration to ovariectomized rats; format: in vivo, rat; settings: once a day for six weeks, hPTH(1-34) 0.9 nmol/kg subcutaneous
Protocol: Female Crl:CD(SD) rats obtained from Charles River Japan, Inc. were acclimated for one week or longer under standard laboratory conditions of 20° C. to 26° C. and 35% to 75% humidity, and then used in experiments. The rats had free access to tap water and a standard rodent diet (CE-2) (Clea Japan Inc.) containing 1.1% calcium, 1.0% phosphoric acid, and 250 IU/100 g vitamin D3.
Twelve-week old rats were subjected to removal of both ovaries by surgery (OVX) or to sham surgery (Sham). After the body weight was determined in the fourth week after surgery, the rats were divided into groups so that the average body weight of each group of six rats would be even. From the subsequent day after group division, each rat was subjected to repeated administration once a day for six weeks. The solvent for oral administration (vehicle) and the solvent for subcutaneous administration (PC buffer) were respectively administered orally and subcutaneously to rats of the Sham-Control group. Vehicle and PC buffer were orally and subcutaneously administered to rats of the OVX-Control group, respectively. To rats of OVX-Compound 7, the above-mentioned Compound 7 dissolved in the vehicle was orally administered at a dose of 30 mg/kg, and PC buffer was administered subcutaneously. To rats of the OVX-hPTH(1-34) group, the vehicle was orally administered, and hPTH(1-34) dissolved in PC buffer was subcutaneously administered at a dose of 0.9 nmol/kg.
The level of AUC (area under the curve for blood concentration vs. time) was the same as when 20 μg of Forteo®, a therapeutic agent clinically used for osteoporosis, is administered to humans when the administration dose for rats was set to 0.9 nmol/kg. The administration doses were 5 mL/kg for oral administration and 1 mL/kg for subcutaneous administration in all groups. The vehicle used was a composition prepared from 10% dimethyl sulfoxide (Wako Pure Chemical Industries, Ltd.), 10% Kolliphor EL (Sigma-Aldrich Japan), and 10% hydroxypropyl-β-cyclodextrin (Nihon Shokuhin Kako Co., Ltd), whose pH was adjusted to 10 using glycine (Wako Pure Chemical Industries, Ltd.) and sodium hydroxide (Wako Pure Chemical Industries, Ltd.). The PC buffer used was a composition prepared from 25 mmol/L phosphate-citrate buffer, 100 mmol/L NaCl, and 0.05% Tween80, adjusted to pH 5.0. […] The bone mineral densities of the lumbar spine and femur were determined using a dual X-ray bone mineral scanner (DCS-600EX, Aloka). The lumbar spine bone mineral density was determined by measuring the second to fourth lumbar vertebrae; and the femur bone mineral density was determined by vertically dividing the femur into ten parts, and measuring the three parts at the distal end of the knees. […]

“hPTH(1-34): Human PTH(1-34) peptide purchased from Peptide Institute, Inc.; positive control [reference compound]” was tested, and the “radioactivity (proteoglycan synthesis, cpm/μg DNA) relative to the vehicle control” value [1] was 6 fold, the “alkaline phosphatase activity (alkaline phosphatase staining)” value ([2]; cultured for 14 days) was “suppressed alkaline phosphatase activity in a concentration-dependent manner” and the “alizarin red staining property (calcification)” value ([2]; cultured for 21 days) was “suppressed the alizarin staining property in a concentration-dependent manner”. For the same substance, the “percentage of increase in femur bone mineral density with respect to the OVX-Control group” value (ovariectomized rats; Compound 7 30 mg/kg oral) was 8% and the “percentage of increase in lumbar spine bone mineral density with respect to the OVX-Control group” value (ovariectomized rats) was 12%.
